Test results: patent US9765069B2, “Antimicrobial compounds” (OXFORD UNIVERSITY INNOVATION LIMITED, priority 2012, dated 2017)
Converted amounts (≈) assume the structure as drawn. Read-outs that look alike come from different tables or passages of the source.

How the values were obtained:
H3 = assay: MIC determination (bacteria), strain H3; assay type: cell-based, H. influenzae; settings: Table 2, haemophilus test medium; for MIC: Haemophilus influenzae
Procedure: (§1) MIC determination (bacteria); MICs were determined based on Clinical and Laboratory Standards Institute (CLSI) methodology (Methods for dilution antimicrobial susceptibility tests for bacteria that grow aerobically; Approved Standard—seventh edition. 2006, M7-A7, CLSI, Wayne Pa.) by a 2-fold broth dilution technique in Mueller Hinton (pH7.4 Biorad). For S. pneumoniae, the medium was supplemented with 2.5% laked horse blood. For H. influenzae, the medium was haemophilus test medium (H.T.M.). Overnight cultures were diluted to obtain the final inoculum of 10^5 cfu/well. Incubation was 37° C. overnight in ambient air. The MIC was defined as the lowest concentration which inhibited all visual growth and expressed in μg/ml. For each bacterial species, all of the molecules were tested in the same experiment in order to give a head-to-head comparison.

S26 = assay: MIC determination (bacteria), strain S26; assay type: cell-based, S. aureus; settings: Table 2, 2-fold broth dilution; for MIC: Staphylococcus aureus
Procedure: as §1

[1] = aqueous solubility at pH 7.4; assay type: physicochemical; settings: aqueous solubility at pH 7.4 (water with 2% DMSO)
Source text: (§2) These properties can be determined according to techniques that are well known in the art.

[2] = tested on: Hek293 / PMBC versus S. aureus 2, MRSA in vivo; assay: Selectivity index (LD50 Hek293/PMBC divided by MIC S. aureus 2); assay type: cell-based; settings: lower LD50 of Hek293 and PMBC (converted to μg/mL) divided by MIC against S. aureus 2, MRSA in vivo
S4 = assay: MIC determination (bacteria), strain S4; assay type: cell-based, S. aureus; settings: Table 2, 2-fold broth dilution; for MIC: Staphylococcus aureus
Procedure: as §1

H4 = assay: MIC determination (bacteria), strain H4; assay type: cell-based, H. influenzae; settings: Table 2 and its footnote f, haemophilus test medium; for MIC: Haemophilus influenzae
Procedure: as §1

E2 = assay: MIC determination (bacteria), strain E2; assay type: cell-based, enterococcus; settings: Table 2, 2-fold broth dilution; for MIC: Enterococcus
Procedure: as §1

S1 = assay: MIC determination (bacteria), strain S1; assay type: cell-based, S. aureus; settings: Table 2, 2-fold broth dilution; for MIC: Staphylococcus aureus
Procedure: as §1

[3] = tested on: S2 (S. aureus 2, MRSA in vivo); assay: MIC determination (bacteria), strain S2; assay type: cell-based; settings: Table 2, 2-fold broth dilution; for MIC: Staphylococcus aureus, MRSA
Procedure: as §1

[4] = tested on: human embryonic kidney 293 cells; assay: in vitro toxicities against human embryonic kidney 293 cells; assay type: cell-based
Source text: as §2

P1 = assay: MIC determination (bacteria), strain P1; assay type: cell-based, S. pneumoniae; settings: Table 2, 2-fold broth dilution; for MIC: Streptococcus pneumoniae
Procedure: as §1

P9B = assay: MIC determination (bacteria), strain P9B; assay type: cell-based, S. pneumoniae; settings: Table 2, 2-fold broth dilution; for MIC: Streptococcus pneumoniae
Procedure: as §1

P9 = assay: MIC determination (bacteria), strain P9; assay type: cell-based, S. pneumoniae; settings: Table 2, 2-fold broth dilution; for MIC: Streptococcus pneumoniae
Procedure: as §1

[5] = tested on: human peripheral blood cells; assay: in vitro toxicities human peripheral blood cells; assay type: cell-based
Source text: as §2

S. aureus membrane = assay: In vitro activity in depolarization of S. aureus membrane; assay type: cell-based; settings: read-out: DEP (IC50)
Source text: as §2

E. Coli RNAP = E. Coli RNAP (Escherichia coli, UniProt P0A8T7+P0A8V2); assay: In vitro activity against E. Coli RNAP; assay type: biochemical
Source text: as §2

[6] = tested on: mammalian_red blood cell membrane; assay: In vitro mammalian red blood cell membrane lysis activity; assay type: cell-based; settings: Active or inactive at 100 μM
Source text: as §2

E1 = assay: MIC determination (bacteria), strain E1; assay type: cell-based, enterococcus; settings: Table 2, 2-fold broth dilution
Procedure: as §1

all strains = assay: MIC determination (bacteria), whole strain panel of Table 2; assay type: cell-based
Procedure: as §1

[7] = human embryonic kidney 293 cells
[8] = read-out: MIC against the other strains
[9] = all strains (S1, S26, S4, S2, E1, E2, P1, P9, P9B, H3, H4), read-out: MIC for all strains

E. Coli RNAP, sequence (P0A8V2 whole entry): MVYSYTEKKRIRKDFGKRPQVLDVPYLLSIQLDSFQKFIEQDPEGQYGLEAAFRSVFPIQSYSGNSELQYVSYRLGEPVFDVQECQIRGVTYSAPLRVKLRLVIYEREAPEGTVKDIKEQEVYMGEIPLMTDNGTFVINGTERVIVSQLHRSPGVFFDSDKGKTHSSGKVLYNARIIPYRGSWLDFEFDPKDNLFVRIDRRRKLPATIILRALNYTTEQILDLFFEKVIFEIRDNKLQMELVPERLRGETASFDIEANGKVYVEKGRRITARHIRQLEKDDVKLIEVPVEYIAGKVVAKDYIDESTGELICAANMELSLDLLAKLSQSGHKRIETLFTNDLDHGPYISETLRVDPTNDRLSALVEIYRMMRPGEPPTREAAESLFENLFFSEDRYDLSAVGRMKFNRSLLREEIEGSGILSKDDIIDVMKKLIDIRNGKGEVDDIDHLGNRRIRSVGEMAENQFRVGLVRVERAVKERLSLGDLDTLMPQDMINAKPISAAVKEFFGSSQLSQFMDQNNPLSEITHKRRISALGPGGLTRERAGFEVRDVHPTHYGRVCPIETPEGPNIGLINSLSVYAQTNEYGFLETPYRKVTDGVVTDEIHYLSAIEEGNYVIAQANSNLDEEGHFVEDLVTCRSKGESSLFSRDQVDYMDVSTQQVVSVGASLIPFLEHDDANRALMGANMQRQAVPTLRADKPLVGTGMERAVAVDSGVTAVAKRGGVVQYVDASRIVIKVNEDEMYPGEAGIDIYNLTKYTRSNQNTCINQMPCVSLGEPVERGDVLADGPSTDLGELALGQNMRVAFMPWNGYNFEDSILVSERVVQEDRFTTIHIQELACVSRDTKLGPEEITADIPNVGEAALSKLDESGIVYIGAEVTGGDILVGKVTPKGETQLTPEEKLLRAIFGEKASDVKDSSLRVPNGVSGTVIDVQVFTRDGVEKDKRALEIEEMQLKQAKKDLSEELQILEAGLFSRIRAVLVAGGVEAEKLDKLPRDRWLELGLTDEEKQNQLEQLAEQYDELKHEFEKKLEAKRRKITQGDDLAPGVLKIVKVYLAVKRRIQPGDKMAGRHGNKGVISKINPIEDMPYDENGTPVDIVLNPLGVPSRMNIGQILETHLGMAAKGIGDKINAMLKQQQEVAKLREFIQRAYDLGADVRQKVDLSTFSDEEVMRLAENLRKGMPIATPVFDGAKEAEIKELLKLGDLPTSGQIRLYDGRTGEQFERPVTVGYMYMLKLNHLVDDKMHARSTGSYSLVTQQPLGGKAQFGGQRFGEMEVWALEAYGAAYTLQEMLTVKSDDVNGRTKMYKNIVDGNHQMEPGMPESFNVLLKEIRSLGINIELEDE
E. Coli RNAP, sequence (P0A8T7 whole entry): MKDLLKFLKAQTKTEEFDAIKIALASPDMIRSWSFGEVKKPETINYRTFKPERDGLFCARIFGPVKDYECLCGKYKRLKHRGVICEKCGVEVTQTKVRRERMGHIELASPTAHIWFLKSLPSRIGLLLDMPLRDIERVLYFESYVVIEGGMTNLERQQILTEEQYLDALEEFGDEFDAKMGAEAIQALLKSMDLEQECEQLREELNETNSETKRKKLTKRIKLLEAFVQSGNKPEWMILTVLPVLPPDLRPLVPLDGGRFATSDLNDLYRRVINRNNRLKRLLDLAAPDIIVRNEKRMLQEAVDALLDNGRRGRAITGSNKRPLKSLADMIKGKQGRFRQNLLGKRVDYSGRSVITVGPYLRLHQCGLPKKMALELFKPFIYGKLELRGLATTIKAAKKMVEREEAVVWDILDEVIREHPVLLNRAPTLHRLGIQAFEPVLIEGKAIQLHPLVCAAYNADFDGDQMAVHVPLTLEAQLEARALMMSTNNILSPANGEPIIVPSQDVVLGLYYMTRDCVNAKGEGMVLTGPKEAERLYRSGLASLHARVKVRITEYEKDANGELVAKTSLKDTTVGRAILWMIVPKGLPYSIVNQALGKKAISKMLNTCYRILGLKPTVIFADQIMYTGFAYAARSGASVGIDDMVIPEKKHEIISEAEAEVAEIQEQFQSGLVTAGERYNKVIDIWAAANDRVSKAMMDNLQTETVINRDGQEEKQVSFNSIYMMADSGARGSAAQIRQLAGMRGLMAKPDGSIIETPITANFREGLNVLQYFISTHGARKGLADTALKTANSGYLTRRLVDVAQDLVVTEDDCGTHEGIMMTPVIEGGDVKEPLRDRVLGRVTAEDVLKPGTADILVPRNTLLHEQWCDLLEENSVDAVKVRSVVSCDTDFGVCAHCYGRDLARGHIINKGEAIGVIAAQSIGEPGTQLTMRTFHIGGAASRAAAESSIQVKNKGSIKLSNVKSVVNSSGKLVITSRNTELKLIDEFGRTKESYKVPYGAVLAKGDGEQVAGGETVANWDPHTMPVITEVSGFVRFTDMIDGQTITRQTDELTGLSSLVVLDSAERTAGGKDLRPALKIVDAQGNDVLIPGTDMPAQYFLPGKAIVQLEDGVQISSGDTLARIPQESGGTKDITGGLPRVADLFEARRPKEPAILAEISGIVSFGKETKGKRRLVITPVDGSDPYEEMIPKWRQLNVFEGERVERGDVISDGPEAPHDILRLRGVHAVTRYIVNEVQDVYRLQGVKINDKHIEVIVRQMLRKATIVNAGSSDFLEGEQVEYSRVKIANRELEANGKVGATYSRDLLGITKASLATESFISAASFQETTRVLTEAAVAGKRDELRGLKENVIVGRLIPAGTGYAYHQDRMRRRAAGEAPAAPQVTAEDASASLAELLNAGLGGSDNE
E. Coli RNAP, sequence (P0A7Z4 whole entry partner): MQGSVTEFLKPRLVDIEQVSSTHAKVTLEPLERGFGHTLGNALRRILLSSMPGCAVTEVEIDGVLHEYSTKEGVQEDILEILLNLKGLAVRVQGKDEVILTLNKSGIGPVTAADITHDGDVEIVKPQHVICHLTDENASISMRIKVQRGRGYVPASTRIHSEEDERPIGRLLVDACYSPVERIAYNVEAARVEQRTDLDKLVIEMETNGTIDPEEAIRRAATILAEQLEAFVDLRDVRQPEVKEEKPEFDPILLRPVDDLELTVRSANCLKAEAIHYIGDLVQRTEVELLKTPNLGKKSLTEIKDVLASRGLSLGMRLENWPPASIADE
E. Coli RNAP, sequence (P0A800 whole entry partner): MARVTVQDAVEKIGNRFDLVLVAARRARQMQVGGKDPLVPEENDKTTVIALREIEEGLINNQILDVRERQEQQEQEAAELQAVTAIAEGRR

Row | SMILES | SOL [1] [µM] | MIC (H4) [µg/mL] | MIC H3 (H3) [µg/mL] | MIC S26 (S26) [µg/mL] | IC50 (S. aureus membrane) [µM] | MIC S4 (S4) [µg/mL] | IC50 (E. Coli RNAP) [µM] | MIC H4 (H4) [µg/mL] | MIC E2 (E2) [µg/mL] | MIC S1 (S1) [µg/mL] | MIC S2 [3] [µg/mL] | Hek293 (LD50, μM) [4, 7] [µM] | MIC P1 (P1) [µg/mL] | MIC P9B (P9B) [µg/mL] | MIC P9 (P9) [µg/mL] | PMBC (LD50, μM) ([5]; human peripheral blood cells) [µM] | MIC E1 (E1) [µg/mL] | RBC membrane lysis activity (active/inactive) [6] | also measured
1 | Cc1cc(Cl)ccc1OCCC/C(O)=C1\C(=O)CCN(C(=O)c2ccccc2)C1=O [19d] | >300 | 8 (≈ 18.7 µM) |  |  |  |  |  |  |  |  |  |  |  |  |  |  |  |  | MIC (H3): 16 µg/mL (≈ 37.4 µM); MIC (S26): 4 µg/mL (≈ 9.35 µM); SI (Selectivity index) [2]: 9.7; MIC (S4): 4 µg/mL (≈ 9.35 µM); MIC (E2): 4 µg/mL (≈ 9.35 µM); MIC (S1): 2 µg/mL (≈ 4.67 µM); MIC [3]: 4 µg/mL (≈ 9.35 µM); Hek293 (LD50, μM) ([4]; human): 90.9 µM; MIC (P1): 2 µg/mL (≈ 4.67 µM); MIC (P9B): 4 µg/mL (≈ 9.35 µM); MIC (P9): 1 µg/mL (≈ 2.34 µM); PMBC (LD50, μM) ([5]; human): 90.9 µM
2 | CCCCCCC(=O)N1CC(=O)C(=C(O)CC23CC4CC(CC(C4)C2)C3)C1=O [27i] | 67 to 200 |  | 2 (≈ 5.16 µM) | 0.5 (≈ 1.29 µM) | > 100 | 0.25 (≈ 0.645 µM) | 3.1 | 1 (≈ 2.58 µM) | 0.25 (≈ 0.645 µM) | 0.25 (≈ 0.645 µM) | 0.25 (≈ 0.645 µM) | 10.1 | 0.12 (≈ 0.31 µM) | 1 (≈ 2.58 µM) | 0.12 (≈ 0.31 µM) | 30.3 | 0.12 (≈ 0.31 µM) |  | RBCL (IC50, μM) [6]: Active
3 | CCCC(=O)N1CC(=O)C(=C(O)CC23CC4CC(C)(CC(C)(C4)C2)C3)C1=O [27k] | >300 |  | 8 (≈ 21.4 µM) | 2 (≈ 5.35 µM) | > 100 | 2 (≈ 5.35 µM) | 6.7 | 4 (≈ 10.7 µM) | 1 (≈ 2.68 µM) | 2 (≈ 5.35 µM) | 2 (≈ 5.35 µM) | 30.3 | 1 (≈ 2.68 µM) | 1 (≈ 2.68 µM) | 0.5 (≈ 1.34 µM) | 90.9 | 0.5 (≈ 1.34 µM) | Active | 
4 | CCC/C=C/C(=O)N1CC(=O)/C(=C(/O)CC2C[C@@H](C(C)=O)C2(C)C)C1=O (stereo partly drawn) [27q] |  | 32 (≈ 88.5 µM) |  |  |  |  |  |  |  |  |  |  |  |  |  |  |  |  | MIC (all strains; [8]): > 32 µg/mL
5 | CCCC(=O)N1CC(=O)/C(=C(/O)CCNS(=O)(=O)c2ccccc2)C1=O [28j] |  |  |  |  |  |  |  |  |  |  |  |  |  |  |  |  |  |  | MIC (all strains; [9]): > 32 µg/mL
6 | CC12CC3CC(C)(C1)CC(C/C(O)=C1\C(=O)[C@@H]4CCCC(=O)N4C1=O)(C3)C2 [29a] |  | 16 (≈ 43.1 µM) |  |  |  |  | > 100 |  |  |  |  |  |  |  |  |  |  |  | MIC (all strains; [8]): > 32 µg/mL
7 | CCCCCCC/C=C/C(=O)N1C(=O)/C(=C(\O)C[C@@H]2OC(C)(C)OC2=O)C(=O)C1CC(C)C (stereo partly drawn) [30c] |  |  |  |  |  |  | 85 |  |  |  |  |  |  |  |  |  |  |  | MIC (all strains; [9]): > 32 µg/mL
8 | CSCCC1C(=O)C(=C(O)CC23CC4CC(C)(CC(C)(C4)C2)C3)C(=O)N1C(C)=O (stereo not drawn) [31e] | >300 |  | 32 (≈ 76.3 µM) | 1 (≈ 2.38 µM) | 91.4 | 4 (≈ 9.53 µM) | 11 | 4 (≈ 9.53 µM) | 4 (≈ 9.53 µM) | 2 (≈ 4.77 µM) | 4 (≈ 9.53 µM) | 30.3 | 2 (≈ 4.77 µM) | 4 (≈ 9.53 µM) | 2 (≈ 4.77 µM) | 90.9 | 4 (≈ 9.53 µM) | Active | 
9 | CSCCC1C(=O)C(=C(O)CC23CC4CC(CC(C4)C2)C3)C(=O)N1C(=O)C1CCCCC1 (stereo not drawn) [31f] | >300 |  | 32 (≈ 69.6 µM) | 1 (≈ 2.18 µM) | > 100 | 0.5 (≈ 1.09 µM) | 40 | 2 (≈ 4.35 µM) | 1 (≈ 2.18 µM) | 0.5 (≈ 1.09 µM) | 2 (≈ 4.35 µM) | 90.9 | 1 (≈ 2.18 µM) | 2 (≈ 4.35 µM) | 0.5 (≈ 1.09 µM) | >90.9 | 0.5 (≈ 1.09 µM) | Inactive^d | 
10 | CSCCC1C(=O)/C(=C(/O)CC2CC3CCC2C3)C(=O)N1C(=O)CC(C)CC(C)(C)C (stereo not drawn) [31g] | >300 | 2 (≈ 4.45 µM) |  |  |  |  | > 100 |  |  |  |  |  |  |  |  |  |  | Active | MIC (H3): 32 µg/mL (≈ 71.2 µM); MIC (S26): 0.5 µg/mL (≈ 1.11 µM); IC50 (S. aureus membrane; Staphylococcus aureus): > 100 µM; SI (Selectivity index) [2]: <9.1; MIC (S4): 0.5 µg/mL (≈ 1.11 µM); MIC (E2): 0.25 µg/mL (≈ 0.556 µM); MIC (S1): 0.12 µg/mL (≈ 0.267 µM); MIC [3]: 0.5 µg/mL (≈ 1.11 µM); Hek293 (LD50, μM) ([4]; human): 10.1 µM; MIC (P1): 0.5 µg/mL (≈ 1.11 µM); MIC (P9B): 2 µg/mL (≈ 4.45 µM); MIC (P9): 0.25 µg/mL (≈ 0.556 µM); PMBC (LD50, μM) ([5]; human): 30.3 µM
11 | CSCCC1C(=O)/C(=C(/O)C[C@@H]2OC(C)(C)OC2=O)C(=O)N1C(=O)CC(C)CC(C)(C)C (stereo partly drawn) [31h] |  |  |  |  |  |  |  |  |  |  |  |  |  |  |  |  |  |  | MIC (all strains; [9]): > 32 µg/mL
12 | CSCCC1C(=O)/C(=C(/O)CCCOc2ccc(Cl)cc2C)C(=O)N1C(=O)CC(C)CC(C)(C)C (stereo not drawn) [31j] | >300 | 8 (≈ 15.3 µM) |  |  |  |  | 91 |  |  |  |  |  |  |  |  |  |  | Active | MIC (H3): > 64 µg/mL; MIC (S26): 1 µg/mL (≈ 1.91 µM); IC50 (S. aureus membrane; Staphylococcus aureus): > 100 µM; SI (Selectivity index) [2]: <11; MIC (S4): 1 µg/mL (≈ 1.91 µM); MIC (E2): 0.25 µg/mL (≈ 0.477 µM); MIC (S1): 0.5 µg/mL (≈ 0.954 µM); MIC [3]: 0.5 µg/mL (≈ 0.954 µM); Hek293 (LD50, μM) ([4]; human): 10.1 µM; MIC (P1): 0.5 µg/mL (≈ 0.954 µM); MIC (P9B): 8 µg/mL (≈ 15.3 µM); MIC (P9): 0.25 µg/mL (≈ 0.477 µM); PMBC (LD50, μM) ([5]; human): 30.3 µM; MIC (E1; Enterococcus): 1 µg/mL (≈ 1.91 µM)
